Reference: patent US11478474B2, “2-(3′-(hydroxymethyl)-1-methyl-5-((5-(2-methyl-4-(oxetan-3-yl)piperazin-1-yl)pyridin-2-yl)amino)-6-oxo-1,6-dihydro-[3,4′-bipyridin]-2′-yl)-7,7-dimethyl-7,8-dihydro-2H-cyclopenta[4,5]pyrrolo[1,2-a]pyrazin-1(6H)-one as a BTK inhibitor” (HUTCHISON MEDIPHARMA LIMITED, priority 2020, dated 2022)

Assays:
BTK recombinant protein = BTK recombinant protein (Homo sapiens (Human), UniProt Q06187); assay: Determination of biochemical BTK (Z'-LYTE kinase assay)
Description: Example 2 Determination of Biochemical BTK
(§1) 1. Reagents and Materials
BTK recombinant protein: Invitrogen, Cat #PV3363;
Z′-LYTE® kinase test kit-tyrosine 1 peptide: Invitrogen, Cat #PV3190;
Z′-LYTE® biochemical assay employs a fluorescence resonance energy transfer (FRET)—based, coupled-enzyme format and is based on the differential sensitivity of phosphorylated and non-phosphorylated peptides to proteolytic cleavage. Both ends of the short peptide substrate are labeled with two fluorescent groups to form a FRET paired combination. In the primary reaction (the Kinase Reaction), the kinase transfers the γ-phosphate of ATP to a single […] residue on the short peptide substrate. In the secondary reaction (the development reaction), the non-phosphorylated short peptides were recognized and cleaved by a site-specific protease (the development reagent). Phosphorylated short peptides can resist such cleavage. Cleavage of short peptides can disrupt the donor (such as coumarin) and receptor fluorophores (fluorescein) on the short peptides, while the phosphorylated short peptides can maintain FRET. The calculation method of the ratio is as follows, and the ratio of the respective emission signals generated by the donor fluorophores emitted (after excitation at 400 nm) to the receptors is calculated. Emission signal ratio=emitted light by coumarin (445 nm)/emitted light by fluorescein (520 nm). If the FRET short peptide is phosphorylated (such as no kinase inhibitor), the emitted light ratio will remain in a lower level. If the FRET short peptide is non-phosphorylated (such as kinase inhibitor), the emitted light ratio will be in a higher level. In this way, the inhibitory effects of different compound inhibitors on BTK kinase activity would be distinguished.
The experiment were carried out according to the instructions of the Z′-LYTE® kinase test kit-tyrosine 1 peptide. Reagent preparation: 1.33× kinase buffer: 5× kinase buffer was diluted with water to 1.33× kinase buffer; an enzyme solution: the kinase was dissolved in 1.33× kinase buffer with the final working concentration being 3.32 nM; a short peptide solution: a short peptide stock solution (1 mM dissolved in DMSO) was dissolved in 1.33× kinase buffer with the final working concentration being 2 μM; Z′-LYTE Tyr01 phosphorylated short peptide solution, 0.6 μl of stock solution (1 mM dissolved in DMSO) was dissolved in 149.4 μl of 1.33× kinase buffer; an ATP solution: an ATP stock solution (10 mM aqueous solution) was dissolved in 1.33× kinase buffer with the final working concentration being 32 μM; a color-developing solution: color-developing solution B was dissolved in color-developing buffer with the final working concentration being 1× color-developing solution; 4× compound preparation: the compound was diluted in 3-fold gradient concentration to finally obtain 4% DMSO aqueous solution containing different concentrations of the compound, with the final working concentration being 3000, 1000, 333.33, 111.11, 37.04, 12.35, 4.12, 1.37 nM, 8 concentration points in total.
Specific steps of the experiment: In the experiment, there were three control groups, each with 8 replicate wells, which were C1 100% inhibition group (no ATP), C2 0% inhibition group (with ATP), and C3 100% phosphorylation group, respectively. 2.5 μl of serially diluted compound was added to each well of a 384-well plate, with double replicate wells, and 4% DMSO solution was added to wells C1, C2, and C3. After that, except for wells C3, 2.5 μl of BTK enzyme solution was added to each remaining well, which was left to stand at 4° C. for 30 minutes. After that, except for wells C3, 2.5 μl of short peptide solution was added to each well, and 5 μl of phosphorylated short peptide solution was added to each of wells C3. 2.5 μl of 1.33× kinase buffer was added to each of wells C1 and C3, and 2.5 μl of ATP solution was added to each of the remaining wells. […]

[1] = biological target: phosphorylated BTK in Ramos cells (Homo sapiens (Human), UniProt Q06187); assay: Determination of phosphorylated BTK in Ramos cells (BTK phospho-Y223 HTRF); assay type: cell-based; settings: anti-human IgM + hydrogen peroxide stimulation
Description: Determination of Phosphorylated BTK in Ramos Cells
as §1
Ramos cells: Ramos cells were purchased from American Standard Biological Collection Center ATCC Cell Bank, PRMI 1640 medium containing L-glutamine, 1.5 g/L of sodium bicarbonate, 2.383 g/L of HEPES solution, 0.11 g/L of sodium pyruvate and 4.5 g/L of glucose was used, added 10% fetal bovine serum FBS, and placed in a 5% CO2, 37° C. cell incubator for normal culture;
Phosphorylated BTK HTRF detection kit (BTK phospho-Y223 HTRF kit): Cisbio, Cat #63ADK017PEH;
Ramos cells were starved in PRMI 1640 medium with 1% FBS for 2 hours. The starved Ramos cells were diluted with Hank's balanced salt solution to 5.0×10^6 cells/ml, seeded in a 96-well plate with 20 μL/well (1.0×10^5 cells/well), and cultured in a 5% CO2, 37° C. cell incubator. After culturing for 1 hour, the test compound was diluted with Hank's balanced salt solution in 4-fold gradient to the corresponding concentrations, and then 5 μL/well of the diluted test compound with different concentrations (the final concentrations of the test compound were 3.0, 0.75, 0.188, 0.047, 0.012, 0.0029, 0.0007 and 0.00018 μM, and the final concentration of DMSO was 0.3%, double replicate wells) or 5 μL/well of control solution (1.5% DMSO, 8 replicate wells) were added to 20 μL/well of cell culture system, which incubated together for another hour, then 5 μL/well of a mixed solution of human immunoglobulin M (final concentration was 10 μg/mL) and hydrogen peroxide (final concentration was 3.3 mM) diluted with Hank's balanced salt solution was added to the treating wells for the test compound and the control treating wells for anti-human immunoglobulin M, and 5 μL/well of Hank's balanced salt solution was added to negative control treating wells. The plate was incubated in a 5% CO2, 37° C. cell incubator for 10 minutes.
10 μL/well of cell lysis buffer was added to each well of a 96-well plate, which was mixed well and lysed at room temperature for 30 minutes. 16 μL/well of lysis buffer was pipetted to a new 384 well plate, and then added 4 μL/well of phosphorylated BTK antibody, centrifuged (1000 rpm) for 1 minute, then shaken for 1 minute, further centrifuged (1000 rpm) for 1 minute, and finally placed in a constant temperature incubator overnight. Detection was performed on the next day.
The 384 well plate incubated overnight in the constant temperature incubator was taken out to detect the luminescence signal using the Envision microwell plate reader at the […]. The reading value at 665 nm/615 nm of each well multiplied by 104 was used as the signal value of each well.
The average signal value of the wells supplemented with the mixed solution of human immunoglobulin M (final concentration was 10 μg/mL) and hydrogen peroxide (final concentration was 3.3 mM) without the test compound was regarded as the high value, and the average signal value of the wells without immunoglobulin M stimulation and without the test compound was regarded as the low value. According to the signal value in each well, the inhibition ratio (%) of each concentration of compounds was calculated, and the 205 model in XL-Fit 5.3 software (ID Business Solutions Limited) was used to obtain an IC50 value.
The inhibition ratio is calculated as follows: inhibition ratio (%)=100%−{(treating well for the test compound−negative control treating well)/(control treating well for anti-human immunoglobulin M−negative control treating well)}×100%, wherein,
Treating well for the test compound: represents the signal value of Ramos cells treated with anti-human immunoglobulin M, hydrogen peroxide and the test compound.
Control treating well for anti-human immunoglobulin M: represents the signal value of Ramos cells treated with anti-human immunoglobulin M, hydrogen peroxide but without the test compound. […]

phosphorylated BTK in Ramos cells, sequence (Q06187 whole entry): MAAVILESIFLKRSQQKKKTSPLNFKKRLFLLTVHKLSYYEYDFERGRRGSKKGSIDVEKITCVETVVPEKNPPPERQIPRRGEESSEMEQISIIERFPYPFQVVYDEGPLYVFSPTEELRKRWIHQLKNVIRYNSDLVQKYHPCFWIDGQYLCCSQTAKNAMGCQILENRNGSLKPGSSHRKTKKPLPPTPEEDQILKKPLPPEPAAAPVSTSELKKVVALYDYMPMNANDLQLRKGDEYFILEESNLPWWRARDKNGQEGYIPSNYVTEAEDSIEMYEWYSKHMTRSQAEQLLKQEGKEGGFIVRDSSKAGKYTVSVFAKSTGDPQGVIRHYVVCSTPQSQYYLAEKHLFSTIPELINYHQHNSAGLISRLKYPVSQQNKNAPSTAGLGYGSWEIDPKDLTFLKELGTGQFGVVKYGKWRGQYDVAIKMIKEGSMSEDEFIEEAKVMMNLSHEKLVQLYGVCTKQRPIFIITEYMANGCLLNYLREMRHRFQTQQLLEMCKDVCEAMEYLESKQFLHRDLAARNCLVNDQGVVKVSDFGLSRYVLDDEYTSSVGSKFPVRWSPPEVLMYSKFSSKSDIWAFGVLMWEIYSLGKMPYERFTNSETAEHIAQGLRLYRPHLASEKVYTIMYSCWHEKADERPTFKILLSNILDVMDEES
BTK recombinant protein, sequence (Q06187 whole entry): as above

Compound	IC50 (BTK recombinant protein) [nM]	IC50 [1] [nM]
C[C@H]1CN(C2COC2)CCN1c1ccc(Nc2cc(-c3ccnc(-n4ncn5c6c(cc5c4=O)CCCCC6)c3CO)cn(C)c2=O)nc1 [Compound 150]	12	12
Cc1ccc(Nc2cc(-c3ccnc(-n4ncn5c6c(cc5c4=O)CC(C)(C)C6)c3CO)cn(C)c2=O)nn1 [Compound 132]	51	28
C[C@H]1CN(CC#N)CCN1c1ccc(Nc2cc(-c3ccnc(-n4ccn5c6c(cc5c4=O)CC(C)(C)C6)c3CO)cn(C)c2=O)nc1 [Compound 102]	11	2
C[C@H]1CN(C2COC2)C(=O)N1c1ccc(Nc2cc(-c3ccnc(-n4ccn5c6c(cc5c4=O)CC(C)(C)C6)c3CO)cn(C)c2=O)nc1 [Compound 123]	13	9
Cn1cc(-c2ccnc(-n3ncn4c5c(cc4c3=O)CC(C)(C)C5)c2CO)cc(Nc2ccc(C3CN(C4COC4)C3)cn2)c1=O [Compound 141]	14	13
C[C@H]1c2cc(Nc3cc(-c4ccnc(-n5ccn6c7c(cc6c5=O)CC(C)(C)C7)c4CO)cn(C)c3=O)nn2CCN1C1COC1 [Compound 136]	4	5
Cn1cc(-c2ccnc(-n3ccn4c(c(F)c5ccccc54)c3=O)c2CO)cc(Nc2cc3n(n2)CCN(C2COC2)C3)c1=O [Compound 178]	6	12
C[C@@H]1CN(c2ccc(Nc3cc(-c4ccnc(-n5ccn6c7c(c(F)c6c5=O)CCCC7)c4CO)cn(C)c3=O)nc2)[C@@H](C)CN1C1COC1 [Compound 218]	6	12
COC1CN(c2ccc(Nc3cc(-c4ccnc(-n5ccn6c7c(cc6c5=O)CC(C)(C)C7)c4CO)cn(C)c3=O)nn2)C1 [Compound 159]	6	26
COCCN(c1ccc(Nc2cc(-c3ccnc(-n4ccn5c6c(cc5c4=O)CC(C)(C)C6)c3CO)cn(C)c2=O)nc1)C(C)C [Compound 51]	10	8
COCCN1CCn2nc(Nc3cc(-c4ccnc(-n5nc(C)n6c7c(cc6c5=O)CC(C)(C)C7)c4CO)cn(C)c3=O)cc2C1C (racemic) [Compound 121]	23	21
C[C@H]1CN(C2COC2)CCN1c1ccc(Nc2cc(-c3cncc(-n4ccn5c6c(cc5c4=O)CC(C)(C)C6)c3CO)cn(C)c2=O)nc1 [Compound 216]	11	7
[2H]C1(N2CCN(c3ccc(Nc4cc(-c5ccnc(-n6ccn7c8c(cc7c6=O)CC(C)(C)C8)c5CO)cn(C)c4=O)nc3)[C@@H](C)C2)COC1 [Compound 94]	7	2
Cn1cc(-c2ccnc(-n3ccn4c5c(cc4c3=O)CC(C)(C)C5)c2CO)cc(Nc2cn(CC(F)(F)F)nn2)c1=O [Compound 30]	9	8
C[C@H]1CN(C2COC2)CCN1c1ccc(Nc2cc(-c3ccnc(-n4ncn5c6c(c(F)c5c4=O)CCCC6)c3CO)cn(C)c2=O)nc1 [Compound 186]	14	10
Cn1cc(-c2ccnc(-n3ccn4c5c(cc4c3=O)CC(C)(C)C5)c2CO)cc(Nc2ccc(C3=CCN(C4COC4)CC3)cn2)c1=O [Compound 36]	31	12

The remaining lines, values ahead:

IC50 (BTK recombinant protein) [nM]	IC50 [1] [nM]	Compound
7	2	COCCN1CCn2nc(Nc3cc(-c4ccnc(-n5ncn6c7c(cc6c5=O)CC(C)(C)C7)c4CO)cn(C)c3=O)cc2[C@@H]1C [Compound 119, 2-(3′-(hydroxymethyl)-5-((5-(2-methoxyethyl)-4-methyl-4,5,6,7-tetrahydropyrazolo[1,5-a]pyrazin-2-yl) amido)-1-methyl-6-oxo-1,6-dihydro-[3,4′-bispyridin]-2′-yl)-7,7-dimethyl-7,8-dihydro-2H-cyclopenta[4,5]pyrrolo[1,2-d][1,2,4]triazin-1(6H)-one optically Pure]
9	3	[2H]C([2H])([2H])n1cc(-c2ccnc(-n3ccn4c5c(cc4c3=O)CC(C)(C)C5)c2CO)cc(Nc2ccc(N3CCN(C4COC4)C[C@@H]3C)cn2)c1=O [Compound 97]
33	21	Cc1ccc(Nc2cc(-c3ccnc(-n4ccn5c6c(cc5c4=O)CC(C)(C)C6)c3CO)cn(C)c2=O)nc1 [Compound 125]
123	60	C[C@H]1CN(C2COC2)CCN1c1ccc(Nc2cc(-c3ccnc(-n4ccn5c(cc6ccccc65)c4=O)c3CO)nn(C)c2=O)nc1 [Compound 76]
1	6	Cn1cc(-c2ccnc(-n3ccn4c5c(cc4c3=O)CC(C)(C)C5)c2CO)cc(Nc2cc3n(n2)CCOC3)c1=O [Compound 162]
11	2	C[C@H]1CN(C2CCOC2)CCN1c1ccc(Nc2cc(-c3ccnc(-n4ccn5c6c(cc5c4=O)CC(C)(C)C6)c3CO)cn(C)c2=O)nc1 (stereo partly drawn) [Compound 66]
58	97	C[C@H]1CN(C2COC2)CCN1c1ccc(Nc2cc(-c3ccnc(-n4ccn5c6c(cc5c4=O)CC(C)(C)C6)c3C=O)cn(C)c2=O)nc1 [Compound 72]
4	7	COCCN1CCn2nc(Nc3cc(-c4ccnc(-n5ccn6c7c(cc6c5=O)CC(C)(C)C7)c4CO)cn(C)c3=O)cc2[C@H]1C [Compound 117]
